Literature values as cited in publication PMC4203335 (International Journal of Oncology, 2014).

Columns and labels:
[1] = tested on: SIRT1
[2] = tested on: colon xenograft
[3] = tested on: melanoma
[4] = tested on: N-Myc-induced neuroblastoma
[5] = mice
[6] = tested on: Burkitt lymphoma xenografts

For guttiferone G, which SIRT1 inhibitory activity [1] is on record?
Its SIRT1 inhibitory activity is “have SIRT1 inhibitory activity”.

For CC(C)=CCC[C@]1(C)[C@@H](CC=C(C)C)C[C@@]2(CC=C(C)C)C(=O)[C@]1(C(=O)C(C)C)C(=O)C(CC=C(C)C)=C2OCC(=O)O [aristoforin], which SIRT1 inhibitory activity [1] is on record?
The SIRT1 inhibitory activity was “have SIRT1 inhibitory activity”.

For inauhzin, which xenograft growth [2] is on record?
The xenograft growth was “reduced colon xenograft growth”.

Which results are given for CN(C)CCCCC(=O)Nc1ccc(NC(=S)NC(=O)c2ccc(C(C)(C)C)cc2)cc1 [Tenovin-6]?
tumorigenesis [3]: suppressed tumorigenesis; tumorigenesis [4]: suppressed tumorigenesis

Which tolerability [5] does the source give for O=c1[nH]c(=S)[nH]c(-c2ccccc2)c1Cc1c(O)ccc2ccccc12 [Cambinol] here?
Its tolerability is “well tolerated”.

And the growth of xenografts [6]?
Its growth of xenografts is “significantly inhibited”.
